Results as given in ChEMBL document CHEMBL4229329, “Design of Small-Molecule Active-Site Inhibitors of the S1A Family Proteases as Procoagulant and Anticoagulant Drugs” (J Med Chem, 2018).

How the values were obtained:
[1] = Apparent permeability across apical to basolateral side in human Caco2 cells at 750 uM measured over 90 mins by HPLC-MS analysis; format: ADME, cell-based; conditions: Caco-2
Coagulation factor X = Coagulation factor X (Homo sapiens, UniProt P00742); experiment: Competitive inhibition of human factor 10a using pefachrome F10a as substrate by UV-visible spectrophotometer
Plasminogen = Plasminogen (Homo sapiens, UniProt P00747); experiment: Competitive inhibition of human plasmin using chromozyme PL as substrate by UV-visible spectrophotometer
Plasma kallikrein = Plasma kallikrein (Homo sapiens, UniProt P03952); experiment: Competitive inhibition of human plasma kallikrein using S2302 as substrate by UV-visible spectrophotometer
Coagulation factor XI = Coagulation factor XI (Homo sapiens, UniProt P03951); experiment: Competitive inhibition of human factor 11a using pefachrome PCa as substrate by UV-visible spectrophotometer
[2] = Apparent permeability across human Caco2 cells measured every 30 mins for 2 hrs; format: ADME, cell-based; conditions: Caco-2
[3] = Oral bioavailability in human at 57 to 200 mg; format: ADME, organism-based; conditions: in vivo
[4] = Efflux ratio of apparent permeability across basolateral to apical over apical to basolateral side in human Caco2 cells; format: ADME, cell-based; conditions: Caco-2
[5] = Oral bioavailability in human at 10 mg; format: ADME, organism-based; conditions: in vivo
Homo sapiens [6] = species on record: Homo sapiens; experiment: Selectivity ratio of Ki for recombinant human factor 9a to Ki for human factor 10a
[7] = Apparent permeability across apical to basolateral side in human Caco2 cells at 10 umol/l measured at 45 to 120 mins by LC-MS/MS analysis; format: ADME, cell-based; conditions: Caco-2
Homo sapiens [8] = species on record: Homo sapiens; experiment: Selectivity ratio of Ki for human PKK to Ki for human factor 11a

Compound: CCOC(=O)CN[C@@H](C(=O)N1CC[C@H]1C(=O)NCc1ccc(/C(N)=N\O)cc1)C1CCCCC1 [XIMELAGATRAN]
- Papp A→B at 1.5 h, 750 µM [1]: 2.4 ×10⁻⁶ cm/s

Compound: N=C(N)c1ccc(CC(=O)[C@H](Cc2cccc(CN)c2)NC(=O)[C@@H](CCCc2ccccc2)NS(=O)(=O)Cc2cccc(C(=O)O)c2)cc1
- Ki (Coagulation factor X): 45 nM
- Ki (Plasminogen): 2.2 nM
- Ki (Plasma kallikrein): 0.02 nM
- Ki (Coagulation factor XI): 18 nM

Compound: N=C(N)c1ccc(CNC(=O)[C@@H]2CCN2C(=O)[C@H](NCC(=O)O)C2CCCCC2)cc1
- Papp at 2 h [2]: 0.03 ×10⁻⁶ cm/s
- bioavailability [3]: 3 to 7%

Compound: CCCCCCOC(=O)NC(=N)c1ccc(NCc2nc3cc(C(=O)N(CCC(=O)OCC)c4ccccn4)ccc3n2C)cc1 [DABIGATRAN ETEXILATE]
- efflux ratio [4]: 13.8

Compound: O=C(NC[C@H]1CN(c2ccc(N3CCOCC3=O)cc2)C(=O)O1)c1ccc(Cl)s1 [RIVAROXABAN]
- bioavailability [5]: > 80%

Compound: N=C(N)c1cccc(-n2nc(C(F)(F)F)cc2C(=O)Nc2ccc(-n3cnc4ccccc43)cc2F)c1
- Ratio Ki (Homo sapiens [6]): 130

Compound: O=C(N[C@@H](Cc1ccccc1)C(=O)NCc1cc(=O)[nH]c2ccc(Cl)cc12)c1ccc2[nH]c(=O)cc(O)c2c1
- Papp A→B at 10 µM [7]: 0.28 ×10⁻⁶ cm/s
- Ratio Ki (Homo sapiens [8]): 10
